Laboratory results from patent US8765138B2 (priority 2004, dated 2014).
In brackets after ≈: the same amount, converted by molar mass.

Legend:
[1] = system: Flu A H3N2 Wisconsin 67/2005; assay: microbe, parasite or virus in culture; format: cell-based; conditions: Influenza A virus, H3N2, MDCK, read-out: Control EC50
MDCK cell line = assay: cells; format: cell-based; conditions: for Control IC50: ribavirin control, with Flu A H5N1

With `NC(=O)c1ncn([C@@H]2O[C@H](CO)[C@@H](O)[C@H]2O)n1` [RIBAVARIN, Ribavirin] the EC50 [1] was 1.9 µg/mL (≈ 7.78 µM), the IC50 (MDCK cell line; Canis lupus familiaris, MDCK, read-out: Control IC50) was greater than 320 µg/mL and the “Control IC50” value (MDCK cell line; Neutral Red) was greater than 320 µg/mL. For the same compound, the “Control IC50” value (MDCK cell line; Visual) was greater than 320 µg/mL.
